Test results published in patent publication US8952024B2, “Herbicidal pyrimidone derivatives” (E I du Pont de Nemours and Company, priority 2009, dated 2015).

Key:
Assay type in all cases: in vivo
[1] = system: morningglory (Ipomoea spp.); assay: Test A pre-/postemergence plant response
In short: (§1)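 Plants grown from seed in a loam soil and sand mix received test compounds both as a preemergence soil spray and, at the same time, as a postemergence spray at the one- to two-leaf stage. Injury was judged visually against untreated controls roughly ten days later, 0 meaning no effect and 100 complete control.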

[2] = system: pigweed (Amaranthus retroflexus); assay: Test A pre-/postemergence plant response
In short: as §1

[3] = system: giant foxtail (Setaria faberii); assay: Test B pre-/postemergence plant response; settings: for Foxtail, Giant plant response rating (0 to 100 scale): 62 g ai/ha, 0 is no effect, 13 to 15 days
In short: (§2)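 Visual ratings on a 0–100 scale (100 = complete control) were made versus untreated controls 13–15 days after treatment in a greenhouse. Compounds in surfactant-containing non-phytotoxic solvent were applied preemergence to seeds in loam–sand blend or postemergence to 1- to 4-leaf plants (2–18 cm).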

[4] = system: goosegrass (Eleusine indica); assay: Test B pre-/postemergence plant response; settings: for Goosegrass plant response rating (0 to 100 scale): 62 g ai/ha, 0 is no effect, 13 to 15 days
In short: as §2

[5] = system: johnsongrass (Sorghum halepense); assay: Test B pre-/postemergence plant response; settings: for Johnsongrass plant response rating (0 to 100 scale): 62 g ai/ha, 0 is no effect, 13 to 15 days
In short: as §2

[6] = system: morningglory (Ipomoea coccinea); assay: Test B pre-/postemergence plant response; settings: for Morningglory plant response rating (0 to 100 scale): 62 g ai/ha, 0 is no effect, 13 to 15 days
In short: as §2

[7] = system: wheat (Triticum aestivum); assay: Test B pre-/postemergence plant response; settings: for Wheat plant response rating (0 to 100 scale): 62 g ai/ha, 0 is no effect, 13 to 15 days
In short: as §2

[8] = system: woolly cupgrass (Eriochloa villosa); assay: Test B pre-/postemergence plant response; settings: for Cupgrass, Woolly plant response rating (0 to 100 scale): 62 g ai/ha, 0 is no effect, 13 to 15 days
In short: as §2

[9] = system: barnyardgrass (Echinochloa crus-galli); assay: Test B flooded paddy test; settings: for Plant response rating, Flood, Barnyardgrass: 250 g ai/ha, flooded paddy test, visual rating on 0 to 100 scale (0 no effect, 100 complete control) after 13 to 15 days; for Plant response rating, Barnyardgrass: Flood (flooded paddy test), 13 to 15 days; for Barnyardgrass plant response rating: Flood, 31 g ai/ha, scale 0 to 100 (0 no effect, 100 complete control)
In short: (§3)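 Ratings are visual, 0–100 (100 = complete control), taken versus untreated controls 13 to 15 days after treatment in the greenhouse. Compound went straight into paddy water held 3 cm above soil, applied to 2-leaf-stage plants of four species.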

[10] = system: ducksalad (Heteranthera limosa); assay: Test B flooded paddy test; settings: for Plant response rating, Flood, Ducksalad: 250 g ai/ha, flooded paddy test, visual rating on 0 to 100 scale (0 no effect, 100 complete control) after 13 to 15 days; for Plant response rating, Ducksalad: Flood (flooded paddy test), 13 to 15 days; for Ducksalad plant response rating: Flood, 31 g ai/ha, scale 0 to 100 (0 no effect, 100 complete control)
In short: as §3

rice (Oryza sativa) = assay: Test B flooded paddy test; settings: for Plant response rating, Flood, Rice: 250 g ai/ha, flooded paddy test, visual rating on 0 to 100 scale (0 no effect, 100 complete control) after 13 to 15 days; for Plant response rating, Rice: Flood (flooded paddy test), 13 to 15 days; for Rice plant response rating: Flood, 31 g ai/ha, scale 0 to 100 (0 no effect, 100 complete control)
In short: as §3

[11] = system: umbrella sedge (Cyperus difformis); assay: Test B flooded paddy test; settings: for Plant response rating, Flood, Sedge, Umbrella: 250 g ai/ha, flooded paddy test, visual rating on 0 to 100 scale (0 no effect, 100 complete control) after 13 to 15 days; for Plant response rating, Sedge, Umbrella: Flood (flooded paddy test), 13 to 15 days; for Sedge, Umbrella plant response rating: Flood, 31 g ai/ha, scale 0 to 100 (0 no effect, 100 complete control)
In short: as §3

[12] = Postemergence, 125 g ai/ha, 0 to 100 scale where 0 is no effect and 100 is complete control
[13] = Postemergence, 500 g ai/ha, 0 to 100 scale, 0 = no effect, 100 = complete control, approx. ten days
[14] = Preemergence, 125 g ai/ha, 0 to 100 scale, 0 = no effect, 100 = complete control
[15] = Preemergence, 500 g ai/ha, visual injury, 0 to 100 scale (0 no effect, 100 complete control), approx. ten days
[16] = 31 g ai/ha, postemergence, scale 0 to 100, 0 is no effect, 100 is complete control
[17] = postemergence, 100 is complete control
[18] = Postemergence, 250 g ai/ha, scale 0 to 100 (0 no effect, 100 complete control)
[19] = Postemergence, 125 g ai/ha, visual rating after 13 to 15 days, scale 0 (no effect) to 100 (complete control)
[20] = 62 g ai/ha, scale of 0 to 100 where 0 is no effect and 100 is complete control
[21] = 125 g ai/ha, scale 0 to 100, 0 is no effect, 100 is complete control

## O=C1CCCC(O)=C1C(=O)c1cnc(C2CC2)n(-c2ccccc2)c1=O [Compound 87]
[1]; [12]
  Plant response rating, Morningglory: 90
[1]; [13]
  Plant response rating, Morningglory: 100
[1]; [14]
  Plant response rating, Morningglory: 50
[1]; [15]
  Plant response rating, Morningglory: 80
[2]; [12]
  Plant response rating, Pigweed: 100
[2]; [13]
  Plant response rating, Pigweed: 100
[3]; [16]
  Plant response rating, Foxtail, Giant: 75
[3]; [17]
  Foxtail, Giant plant response rating (0 to 100 scale): 80
[3]; [18]
  Plant response rating, Foxtail, Giant: 95
[4]; [16]
  Plant response rating, Goosegrass: 75
[4]; [17]
  Goosegrass plant response rating (0 to 100 scale): 80
[4]; [18]
  Plant response rating, Goosegrass: 98
[5]; [16]
  Plant response rating, Johnsongrass: 5
[5]; [17]
  Johnsongrass plant response rating (0 to 100 scale): 25
[5]; [18]
  Plant response rating, Johnsongrass: 45
[6]; [16]
  Plant response rating, Morningglory: 45
[6]; [17]
  Morningglory plant response rating (0 to 100 scale): 45
[6]; [18]
  Plant response rating, Morningglory: 65
[7]; [16]
  Plant response rating, Wheat: 35
[7]; [17]
  Wheat plant response rating (0 to 100 scale): 35
[7]; [18]
  Plant response rating, Wheat: 50
[8]; [16]
  Plant response rating, Cupgrass, Woolly: 50
[8]; [17]
  Cupgrass, Woolly plant response rating (0 to 100 scale): 75
[8]; [19]
  Plant response rating, Cupgrass, Woolly: 75
[8]; [18]
  Plant response rating, Cupgrass, Woolly: 90
[9]
  Plant response rating, Flood, Barnyardgrass: 60
  Barnyardgrass plant response rating: 20
[9]; [20]
  Plant response rating, Barnyardgrass: 45
[9]; [21]
  Plant response rating, Barnyardgrass: 55
[10]
  Plant response rating, Flood, Ducksalad: 20
  Ducksalad plant response rating: 20
[10]; [20]
  Plant response rating, Ducksalad: 30
[10]; [21]
  Plant response rating, Ducksalad: 20
Rice (Oryza sativa)
  Plant response rating, Flood, Rice: 70
  Rice plant response rating: 0
Rice (Oryza sativa); [20]
  Plant response rating, Rice: 20
Rice (Oryza sativa); [21]
  Plant response rating, Rice: 60
[11]
  Plant response rating, Flood, Sedge, Umbrella: 70
  Sedge, Umbrella plant response rating: 0
[11]; [20]
  Plant response rating, Sedge, Umbrella: 20
[11]; [21]
  Plant response rating, Sedge, Umbrella: 50

## O=C1CCCC(O)=C1C(=O)c1cnc(-c2ccccc2)n(C2CC2)c1=O [Compound 90]
[1]; [12]
  Plant response rating, Morningglory: 100
[1]; [13]
  Plant response rating, Morningglory: 100
[1]; [14]
  Plant response rating, Morningglory: 0
[1]; [15]
  Plant response rating, Morningglory: 70
[2]; [12]
  Plant response rating, Pigweed: 100
[2]; [13]
  Plant response rating, Pigweed: 100
[2]; [14]
  Plant response rating, Pigweed: 80
[2]; [15]
  Plant response rating, Pigweed: 100
[3]; [16]
  Plant response rating, Foxtail, Giant: 65
[3]; [17]
  Foxtail, Giant plant response rating (0 to 100 scale): 70
[3]; [18]
  Plant response rating, Foxtail, Giant: 85
[4]; [16]
  Plant response rating, Goosegrass: 60
[4]; [17]
  Goosegrass plant response rating (0 to 100 scale): 60
[4]; [18]
  Plant response rating, Goosegrass: 75
[5]; [16]
  Plant response rating, Johnsongrass: 10
[5]; [17]
  Johnsongrass plant response rating (0 to 100 scale): 25
[5]; [18]
  Plant response rating, Johnsongrass: 65
[6]; [16]
  Plant response rating, Morningglory: 65
[6]; [17]
  Morningglory plant response rating (0 to 100 scale): 95
[6]; [18]
  Plant response rating, Morningglory: 100
[7]; [16]
  Plant response rating, Wheat: 5
[7]; [17]
  Wheat plant response rating (0 to 100 scale): 10
[7]; [18]
  Plant response rating, Wheat: 35
[8]; [16]
  Plant response rating, Cupgrass, Woolly: 45
[8]; [17]
  Cupgrass, Woolly plant response rating (0 to 100 scale): 45
[8]; [19]
  Plant response rating, Cupgrass, Woolly: 50
[8]; [18]
  Plant response rating, Cupgrass, Woolly: 55
[9]
  Plant response rating, Flood, Barnyardgrass: 30
  Barnyardgrass plant response rating: 0
[9]; [20]
  Plant response rating, Barnyardgrass: 0
[9]; [21]
  Plant response rating, Barnyardgrass: 15
[10]
  Plant response rating, Flood, Ducksalad: 90
  Ducksalad plant response rating: 50
[10]; [20]
  Plant response rating, Ducksalad: 65
[10]; [21]
  Plant response rating, Ducksalad: 80
Rice (Oryza sativa)
  Plant response rating, Flood, Rice: 0
  Rice plant response rating: 0
Rice (Oryza sativa); [20]
  Plant response rating, Rice: 0
Rice (Oryza sativa); [21]
  Plant response rating, Rice: 0
[11]
  Plant response rating, Flood, Sedge, Umbrella: 80
  Sedge, Umbrella plant response rating: 50
[11]; [20]
  Plant response rating, Sedge, Umbrella: 60
[11]; [21]
  Plant response rating, Sedge, Umbrella: 75
